US8901345B2, “Process for preparation of optically active diamine derivative salt” (Daiichi Sankyo Company, Limited, priority 2010, dated 2014)
“Also recorded” adds a separate entry of the source. Where a name gives a salt, the structure may show the parent alone.

Key:
Assay type in all cases: physicochemical
[1] = Comparison of water solubility of crystals in hydrous toluene/acetonitrile; settings: compared with monohydrate crystals of (1b) in the cis-form; water added to a 13% toluene/acetonitrile solution to change percentage water content
Experimental: Water was added to a 13% toluene/acetonitrile solution to change the percentage water content to compare water solubility between the monohydrate crystals of the compound represented by formula (1b) and the monohydrate crystals of the trans-isomer compound represented by formula (1b-trans).

[2] = Crystal form transformation (solid form stability) of crystal polymorphs; settings: for transformation of anhydrous crystals to monohydrate crystals: stirring at 25° C., depending on the percentage water content of the mother liquor, oxalate
Experimental: The Form 2 anhydrous crystals were also found to be excellent in operability such as filtration performance. Powder x-ray diffraction diagrams of the Form 1 and Form 2 anhydrous crystals of compound (1) are shown in FIGS. 1 and 2, respectively, and their diffraction diagrams based on thermal analysis are shown in FIGS. 5 and 6, respectively.
Compound (1a) was treated with anhydrous oxalic acid in 6% hydrous acetonitrile to obtain two crystal polymorphs of monohydrate crystals of the title compound represented by formula (1b) (this production method is described in Example 3 below). Powder x-ray diffraction diagrams of the Form 1 and Form 2 monohydrate crystals are shown in FIGS. 3 and 4, respectively, and their diffraction diagrams based on thermal analysis are shown in FIGS. 7 and 8, respectively.

[3] = Hygroscopicity of crystal polymorphs; settings: among the crystal polymorphs of anhydrous crystals of compound (1)

With `CN(C)C(=O)[C@H]1CC[C@@H](N)[C@H](NC(=O)OC(C)(C)C)C1` [(1b-trans)] the water solubility [1] was “highly water-soluble; also recorded: more water-soluble”.

For `CN(C)C(=O)[C@H]1CC[C@H](N)[C@H](NC(=O)OC(C)(C)C)C1` [Form 1 anhydrous crystals, tert-butyl {(1R,2S,5S)-2-amino-5-[(dimethylamino)carbonyl]cyclohexyl}carbamate oxalate], the “transformation of anhydrous crystals to monohydrate crystals” value [2] was “transformed to monohydrate crystals”.

In the case of `CN(C)C(=O)[C@H]1CC[C@H](N)[C@H](NC(=O)OC(C)(C)C)C1` [Form 1 monohydrate crystals, tert-butyl {(1R,2S,5S)-2-amino-5-[(dimethylamino)carbonyl]cyclohexyl}carbamate oxalate monohydrate], the “crystal transformation when left standing” value ([2]; left at room temperature for approximately 2 hours) is reported as “transformed to Form 2 monohydrate crystals”.

For `CN(C)C(=O)[C@H]1CC[C@H](N)[C@H](NC(=O)OC(C)(C)C)C1` [Form 2 anhydrous crystals, tert-butyl {(1R,2S,5S)-2-amino-5-[(dimethylamino)carbonyl]cyclohexyl}carbamate oxalate], the “transformation of anhydrous crystals to monohydrate crystals” value [2] was “hardly transformed to monohydrate crystals” and the hygroscopicity [3] was “much less hygroscopic”.
